Experimental data as given in patent publication US10316017B2, “COT modulators and methods of use thereof” (Gilead Sciences, Inc., priority 2015, dated 2019).
Where two headings read alike, the source gives them in different places.

How the values were obtained:
[1] = test system: TNFα production in LPS-stimulated human monocytes; assay: Cot Monocyte TNFα Cell Based Assay; conditions: for EC50: Homo sapiens, Monocyte, read-out: EC50 TNF
Experimental: Example 60: Cot Monocyte TNFα Cell Based Assay
The cell suspension was then plated at a density of 5,000 cells/well onto black 384 well Greiner clear bottom plates. Plates were pre-spotted with test compounds and serially diluted in DMSO where 200 nL/well were delivered using the Echo 550 acoustic liquid dispenser (Labcyte®) for a final DMSO concentration of 0.5%. Plated cells were treated with compound for 1 hour at 37° C. Cells were then stimulated with 50 pg/ml of LPS (Sigma) excluding outside columns of plate used for unstimulated cell control wells. Cells were incubated for an additional 4 hours at 37° C. Cells were then spun out of the media and 5 ul of sample were taken and analyzed for total TNFα content using the TR-FRET Human TNFα detection system (CisBio). This system utilizes two labeled antibodies (cryptate and XL665) that bind to two different epitopes of the TNFα molecule and produce FRET signal proportional to the concentration of TNFα in the sample. Detection antibodies are mixed 50:50 and 5 μL were dispensed into each well. Plates were covered with clear seals and incubated at room temp overnight. […] Percent of control was calculated as follows: % Control=100×(RatioSample−Ratio0% stimulation)/(Ratio100% Stimulation−Ratio0% Stimulation) where unstimulated cells (0% stimulation) were the negative control and stimulated cells (100% stimulation) were used as the positive control.

[2] = biological target: T1, human Cot catalytic domain (30-397 amino acids) (Homo sapiens, UniProt P41279); assay: High Throughput Cot Biochemical Assay (KinEASE TR-FRET); conditions: Cot KinEASE TR-FRET, 400 μM ATP; read-out: IC50 HTRF
T1 construct: Purified recombinant human Cot catalytic domain (30-397 amino acids) was purchased from Cama Biosciences; purchased Cama Biosciences (so in the source)
In short: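 TR-FRET readout: Eu-labeled phospho-specific antibody binds XL665-tagged STK3 peptide after phosphorylation by Cot (aa 30-397, 5 nM). Conditions: 400 μM ATP, 1 μM peptide, MOPS pH 7.0 buffer with MgOAc, DTT, BSA, NP-40, glycerol; 0.1% DMSO.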

[3] = TNFα in LPS-stimulated human monocytes

T1 sequence (P41279 30-397): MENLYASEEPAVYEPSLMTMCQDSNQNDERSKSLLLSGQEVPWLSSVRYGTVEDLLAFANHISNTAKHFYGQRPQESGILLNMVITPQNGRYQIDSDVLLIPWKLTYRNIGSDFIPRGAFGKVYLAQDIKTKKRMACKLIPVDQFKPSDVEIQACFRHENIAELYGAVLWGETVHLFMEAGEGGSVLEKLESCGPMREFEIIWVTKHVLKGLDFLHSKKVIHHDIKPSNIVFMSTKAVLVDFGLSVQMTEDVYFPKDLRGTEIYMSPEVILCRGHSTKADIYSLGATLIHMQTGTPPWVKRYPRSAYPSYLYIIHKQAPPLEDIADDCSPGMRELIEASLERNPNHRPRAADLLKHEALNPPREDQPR

SMILES	IC50 [2]	other results
CCN1CCC(n2cc(CNc3cc(Cl)c4ncc(C#N)c(Nc5ccc(F)c(Cl)c5)c4c3)nn2)CC1 [Comparative Example 1, reference compound]		IC50/EC50 [nM]: EC50 (TNFα, monocytes) ([1]; second value of the cell IC50/EC50, human monocytes, 50 pg/ml LPS, 4 hours): 310 nM
CC(C)n1cc([C@@H](Nc2cc(Cl)c3ncc(C#N)c(Nc4ccc(F)c(Cl)c4)c3c2)c2cccc(COCCN(C)C)c2)nn1 [Compound 40]		EC50 [1, 3]: 1260 nM
[2H][C@](Nc1cc(Cl)c2ncc(C#N)c(NCC3(CC)CCC3)c2c1)(c1ccc(F)cc1)c1cn(C2CC2)nn1 [Example 261, (S)-8-chloro-6-(((1-cyclopropyl-1H-1,2,3-triazol-4-yl)(4-fluorophenyl)methyl-d)amino)-4-(((1-ethylcyclobutyl)methyl)amino)quinoline-3-carbonitrile]		EC50 [1, 3]: 504 nM
[2H][C@](Nc1cc(Cl)c2ncc(C#N)c(NC3CN4CCC3CC4)c2c1)(c1ccc(F)cc1)c1cn(C2CC2)nn1 (stereo partly drawn) [Example 317, 8-chloro-6-(((S)-(1-cyclopropyl-1H-1,2,3-triazol-4-yl)(4-fluorophenyl)methyl-d)amino)-4-(quinuclidin-3-ylamino)quinoline-3-carbonitrile]		EC50 [1]: 8260 nM
N#Cc1cnc2c(Cl)cc(NC(c3ccc(F)c(F)c3)c3cn(C4CCNCC4)nn3)cc2c1Nc1ccc(F)c(Cl)c1 (centres unmarked) [Example 900, 8-chloro-4-((3-chloro-4-fluorophenyl)amino)-6-(((3,4-difluorophenyl)(1-(piperidin-4-yl)-1H-1,2,3-triazol-4-yl)methyl)amino)quinoline-3-carbonitrile]	14 nM	
CCN1CCC(n2cc(C(Nc3cc(Cl)c4ncc(C#N)c(Nc5ccc(F)c(Cl)c5)c4c3)c3ccc(F)c(F)c3)nn2)CC1 (centres unmarked) [Example 901, 8-chloro-4-((3-chloro-4-fluorophenyl)amino)-6-(((3,4-difluorophenyl)(1-(1-ethylpiperidin-4-yl)-1H-1,2,3-triazol-4-yl)methyl)amino)quinoline-3-carbonitrile]	11 nM	
COc1cccc(C(Nc2cc(Cl)c3ncc(C#N)c(Nc4ccc(F)c(Cl)c4)c3c2)c2cn(C3CCN(C(=O)OCc4ccccc4)CC3)nn2)c1 (centres unmarked) [Example 902, benzyl 4-(4-(((8-chloro-4-((3-chloro-4-fluorophenyl)amino)-3-cyanoquinolin-6-yl)amino)(3-methoxyphenyl)methyl)-1H-1,2,3-triazol-1-yl)piperidine-1-carboxylate]	> 1000 nM	
COc1cccc(C(Nc2cc(Cl)c3ncc(C#N)c(Nc4ccc(F)c(Cl)c4)c3c2)c2cn(C3CCNCC3)nn2)c1 (centres unmarked) [Example 903, 8-chloro-4-((3-chloro-4-fluorophenyl)amino)-6-(((3-methoxyphenyl)(1-(piperidin-4-yl)-1H-1,2,3-triazol-4-yl)methyl)amino)quinoline-3-carbonitrile]	7 nM	
CCN1CCC(n2cc(C(Nc3cc(Cl)c4ncc(C#N)c(Nc5ccc(F)c(Cl)c5)c4c3)c3cccc(OC)c3)nn2)CC1 (centres unmarked) [Example 904, 8-chloro-4-((3-chloro-4-fluorophenyl)amino)-6-(((1-(1-ethylpiperidin-4-yl)-1H-1,2,3-triazol-4-yl)(3-methoxyphenyl)methyl)amino) quinoline-3-carbonitrile]	5 nM	
N#Cc1cnc2c(Cl)cc(NC(c3cccc(F)c3)c3cn(C4CCN(C(=O)OCc5ccccc5)CC4)nn3)cc2c1Nc1ccc(F)c(Cl)c1 (centres unmarked) [Example 905, benzyl 4-(4-(((8-chloro-4-((3-chloro-4-fluorophenyl)amino)-3-cyanoquinolin-6-yl)amino)(3-fluorophenyl)methyl)-1H-1,2,3-triazol-1-yl)piperidine-1-carboxylate]	> 1000 nM	
N#Cc1cnc2c(Cl)cc(NC(c3cccc(F)c3)c3cn(C4CCNCC4)nn3)cc2c1Nc1ccc(F)c(Cl)c1 (centres unmarked) [Example 906, 8-chloro-4-((3-chloro-4-fluorophenyl)amino)-6-(((3-fluorophenyl)(1-(piperidin-4-yl)-1H-1,2,3-triazol-4-yl)methyl)amino)quinoline-3-carbonitrile]	8 nM	
CCN1CCC(n2cc(C(Nc3cc(Cl)c4ncc(C#N)c(Nc5ccc(F)c(Cl)c5)c4c3)c3ccc(F)cc3)nn2)CC1 (centres unmarked) [Example 908, 8-chloro-4-((3-chloro-4-fluorophenyl)amino)-6-(((1-(1-ethylpiperidin-4-yl)-1H-1,2,3-triazol-4-yl)(4-fluorophenyl)methyl)amino) quinoline-3-carbonitrile]	5 nM	
N#Cc1cnc2c(Cl)cc(NC(c3ccc(Cl)c(Cl)c3)c3cn(C4CCN(C(=O)OCc5ccccc5)CC4)nn3)cc2c1Nc1ccc(F)c(Cl)c1 (centres unmarked) [Example 909, benzyl 4-(4-(((8-chloro-4-((3-chloro-4-fluorophenyl)amino)-3-cyanoquinolin-6-yl)amino)(3,4-dichlorophenyl)methyl)-1H-1,2,3-triazol-1-yl)piperidine-1-carboxylate]	> 1000 nM	
N#Cc1cnc2c(Cl)cc(NC(c3ccc(Cl)c(Cl)c3)c3cn(C4CCNCC4)nn3)cc2c1Nc1ccc(F)c(Cl)c1 (centres unmarked) [Example 910, 8-chloro-4-((3-chloro-4-fluorophenyl)amino)-6-(((3,4-dichlorophenyl)(1-(piperidin-4-yl)-1H-1,2,3-triazol-4-yl)methyl)amino)quinoline-3-carbonitrile]	52 nM	
CCN1CCC(n2cc(C(Nc3cc(Cl)c4ncc(C#N)c(Nc5ccc(F)c(Cl)c5)c4c3)c3ccc(Cl)c(Cl)c3)nn2)CC1 (centres unmarked) [Example 911, 8-chloro-4-((3-chloro-4-fluorophenyl)amino)-6-(((3,4-dichlorophenyl)(1-(1-ethylpiperidin-4-yl)-1H-1,2,3-triazol-4-yl)methyl)amino)quinoline-3-carbonitrile]	36 nM	
N#Cc1cnc2c(Cl)cc(NC(c3ccccc3)c3cn(CC(=O)O)nn3)cc2c1Nc1ccc(F)c(Cl)c1 (centres unmarked) [Example 912, 2-(4-(((8-chloro-4-((3-chloro-4-fluorophenyl)amino)-3-cyanoquinolin-6-yl)amino)(phenyl)methyl)-1H-1,2,3-triazol-1-yl)acetic acid]	60 nM	
N#Cc1cnc2c(Cl)cc(NC(c3ccc(Cl)cc3)c3cn(C4CCN(C(=O)OCc5ccccc5)CC4)nn3)cc2c1Nc1ccc(F)c(Cl)c1 (centres unmarked) [Example 913, benzyl 4-(4-(((8-chloro-4-((3-chloro-4-fluorophenyl)amino)-3-cyanoquinolin-6-yl)amino)(4-chlorophenyl)methyl)-1H-1,2,3-triazol-1-yl)piperidine-1-carboxylate]	> 1000 nM	
N#Cc1cnc2c(Cl)cc(NC(c3ccc(Cl)cc3)c3cn(C4CCNCC4)nn3)cc2c1Nc1ccc(F)c(Cl)c1 (centres unmarked) [Example 914, 8-chloro-4-((3-chloro-4-fluorophenyl)amino)-6-(((4-chlorophenyl)(1-(piperidin-4-yl)-1H-1,2,3-triazol-4-yl)methyl)amino)quinoline-3-carbonitrile]	23 nM	
Cc1ccc(C(Nc2cc(Cl)c3ncc(C#N)c(Nc4ccc(F)c(Cl)c4)c3c2)c2cn(C3CCN(C(=O)OCc4ccccc4)CC3)nn2)cc1 (centres unmarked) [Example 915, benzyl 4-(4-(((8-chloro-4-((3-chloro-4-fluorophenyl)amino)-3-cyanoquinolin-6-yl)aminoXp-tolyl)methyl)-1H-1,2,3-triazol-1-yl)piperidine-1-carboxylate]	> 1000 nM	
Cc1ccc(C(Nc2cc(Cl)c3ncc(C#N)c(Nc4ccc(F)c(Cl)c4)c3c2)c2cn(C3CCNCC3)nn2)cc1 (centres unmarked) [Example 916, 8-chloro-4-((3-chloro-4-fluorophenyl)amino)-6-(((1-(piperidin-4-yl)-1H-1,2,3-triazol-4-yl)(p-tolyl)methyl)amino) quinoline-3-carbonitrile]	48 nM	
CCN1CCC(n2cc(C(Nc3cc(Cl)c4ncc(C#N)c(Nc5ccc(F)c(Cl)c5)c4c3)c3ccc(C)cc3)nn2)CC1 (centres unmarked) [Example 917, 8-chloro-4-((3-chloro-4-fluorophenyl)amino)-6-(((1-(1-ethylpiperidin-4-yl)-1H-1,2,3-triazol-4-yl)(p-tolyl)methyl)amino)quinoline-3-carbonitrile]	23 nM	
N#Cc1cnc2c(Cl)cc(NC(c3ccccc3)c3cn(C4CCNCC4)nn3)cc2c1Nc1ccc(F)c(Cl)c1 (centres unmarked) [Example 921, 8-chloro-4-((3-chloro-4-fluorophenyl)amino)-6-((phenyl (1-(piperidin-4-yl)-1H-1,2,3-triazol-4-yl)methyl)amino)quinoline-3-carbonitrile]	8 nM	
CCN1CCC(n2cc(C(Nc3cc(Cl)c4ncc(C#N)c(Nc5ccc(F)c(Cl)c5)c4c3)c3ccccc3)nn2)CC1 (centres unmarked) [Example 922, 8-chloro-4-((3-chloro-4-fluorophenyl)amino)-6-(((1-(1-ethylpiperidin-4-yl)-1H-1,2,3-triazol-4-yl)(phenyl)methyl)amino) quinoline-3-carbonitrile]	4 nM	
